Results reported in patent EP4559923A1, “ANTIHISTAMINE COMPOUND, AND PREPARATION METHOD THEREFOR AND USE THEREOF” (HC Synthetic Pharmaceutical Co., Ltd., priority 2022, dated 2024).
Converted amounts (≈) assume the structure as drawn.

Tests used:
[1] = Solubility in water, methanol and isopropanol; settings: for solubility Isopropanol: in isopropanol; for solubility Water: in water; for solubility Methanol: in methanol; for solubility: water
Protocol: The solubility in water, methanol, and isopropanol of the compounds of the present disclosure and the comparative compounds were measured separately.

histamine-induced asthma = experiment: Antiasthmatic effect on histamine-induced asthma in guinea pigs (latency period); assay type: in vivo; settings: X±s, n = 5; for Post-administration latency period: 1 mg/kg oral gavage, sixty minutes after administration, histamine hydrochloride spray, no asthma within 8 minutes counted as 8 minutes
Protocol: The guinea pigs were placed in a polymethyl methacrylate bell jar and a histamine hydrochloride solution was sprayed ultrasonically (0.8 mg/mL) for 40 seconds. The time point at which the guinea pigs developed asthma was recorded. The time of convulsion and fall was taken as the latency period. Guinea pigs with a latency period exceeding 180 seconds were not selected. […] The guinea pigs were administered by oral gavage at a dose of 2 mL/kg·bw. Sixty minutes after the administration, the guinea pigs were placed in bell jars, and histamine hydrochloride solution was sprayed under the same conditions as in the previous selection. The latency period for the onset of asthma was recorded. […] The results were processed statistically.

histamine = experiment: Muscle tone of isolated ileal smooth muscle of guinea pigs contracted with histamine; settings: Table 4, x±s, n = 8; for Antispasmodic percentage (%): relative to tone after adding histamine, 3 min; for Smooth muscle tone (g) After addition of histamine: after 0.05 mL of histamine, before compound; for Smooth muscle tone (g) Before administration: before histamine and compound
Protocol: (§1) The guinea pig was knocked unconscious with a wooden stick, and the abdomen was immediately dissected to separate the ileum about 15 cm in length. The contents of the intestinal segment were flushed with Tyrode's solution and placed in Tyrode's solution at a constant temperature of 37°C for later use, and oxygen was supplied simultaneously. The experimental intestinal tract (1 cm in length) was cut and placed into 20 ml of Tyrode's solution at a constant temperature of 37°C with a continuous oxygen supply. One end of the intestine was fixed on the ventilation hook and the other end was connected to the muscle tone transducer and led to the computer interface. The muscle tone value of the ileal smooth muscle was recorded with a BL system. The experiment was carried out after the intestinal segment contraction became stable.
(§2) After the ileal peristalsis curve stabilized, the tone values before adding the compound were recorded, and then 0.05 mL of histamine was added. […] The operation was repeated 8 times. The antispasmodic percentage was calculated using the following equation. Antispasmodic percentage; = (Tone value after adding histamine−Tone value after adding subject compound)/(Tone value after adding histamine) × 100% [formula]

[2] = system: isolated ileal smooth muscle; experiment: Muscle tone of isolated ileal smooth muscle of guinea pigs, compound alone; settings: Table 3, no histamine, X±s, n = 8; for Antispasmodic percentage (%): relative to tone before adding compound, 5 min; for Smooth muscle tone (g) After administration: 5 minutes after adding the drug
Protocol: as §1
After the ileum contraction curve stabilized, the tone values before adding the drug were recorded, then the drug or DMSO was added, and the average tone value of the ileum contraction curve at that point was recorded 5 minutes later. The operation was repeated 8 times. The antispasmodic percentage was calculated according to the following formula. Antispasmodic percentage =; (Tone value before adding subject compound−Tone value after adding subject compound)/(Tone value before adding subject compound) × 100% [formula]

[3] = Muscle tone of isolated ileal smooth muscle of guinea pigs contracted with histamine; settings: Table 4; 3 minutes after adding 0.05 mL compound at maximum histamine contraction; x±s, n = 8
Protocol: as §1, §2

[4] = Accelerated stability test; assay type: physicochemical; settings: 40°C ± 2°C, relative humidity 75% ± 5%; for remaining at 730 h / remaining at 1460 h / remaining at 2190 h / remaining at 4380 h: storage 75% relative humidity, read-out: Content

Row | solubility Isopropanol [1] [mg/mL] | solubility Water [1] | Structure (SMILES) | Post-administration latency period (histamine-induced asthma) [s] | Antispasmodic percentage (%) (histamine) | Antispasmodic percentage (%) [2] [%] | Smooth muscle tone (g) After administration [3] [g] | Smooth muscle tone (g) After administration [2] [g] | further results
1 | 22 (≈ 49 mM) |  | O=P(O)(O)OCCCN1CCC(=C2c3ccc(Cl)cc3CCc3cccnc32)CC1 [Compound III-7] | 382.57 ± 51.11 | 65.36±17.20 | 29.88±18.88 |  |  | 
2 | 25 (≈ 54 mM) |  | O=P(O)(O)OCCCCN1CCC(=C2c3ccc(Cl)cc3CCc3cccnc32)CC1 [Compound III-10] | 370.80 ± 51.23 | 65.24±18.39 |  | 1.22 ± 0.19 | 1.15 ± 0.26 | 
3 | 25 (≈ 52.4 mM) | 32 mg/mL (≈ 67.1 mM) | O=P(O)(O)OCCCCCN1CCC(=C2c3ccc(Cl)cc3CCc3cccnc32)CC1 [Compound III-13] | 366.81 ± 53.10 | 65.58±18.20 | 32.02±16.85 | 1.17 ± 0.20 | 1.21 ± 0.26 | Pre-administration latency period (histamine-induced asthma; baseline before dosing, histamine hydrochloride spray 0.8 mg/mL for 40 seconds): 104.38 ± 50.27 s; Smooth muscle tone (g) After addition of histamine (histamine): 3.40 ± 0.98 g; Smooth muscle tone (g) Before administration (histamine): 1.80 ± 0.16 g; Smooth muscle tone (g) Before administration ([2]; before adding the drug): 1.78 ± 0.25 g
4 | 1 (≈ 2.23 mM) |  | O=P(O)(O)OCCCN1CCC(=C2c3ccc(Cl)cc3CCc3cccnc32)CC1 [Compound IV-3] | 375.50 ± 47.99 | 64.11±19.66 | 32.00±19.55 |  |  | solubility Methanol [1]: 21 mg/mL (≈ 46.8 mM); solubility [1]: 390 mg/mL (≈ 869 mM)
5 |  |  | O=P(O)(O)OCCCCN1CCC(=C2c3ccc(Cl)cc3CCc3cccnc32)CC1 [Compound IV-4] | 380.22 ± 51.19 | 66.76±19.71 | 33.33±20.91 | 1.16 ± 0.22 | 1.14 ± 0.21 | solubility [1]: 402 mg/mL (≈ 868 mM); Content ([4]; Month 0): 99.6%; Description ([4]; Month 0): White powder; Related substances ([4]; Month 0): 0.03%; Description ([4]; Month 1): White powder; Related substances ([4]; Month 1): 0.04%; Description ([4]; Month 2): White powder; Related substances ([4]; Month 2): 0.05%; Description ([4]; Month 3): White powder; Related substances ([4]; Month 3): 0.06%; Description ([4]; Month 6): White powder; Related substances ([4]; Month 6): 0.10%; remaining at 730 h ([4]; Month 1): 99.6%; remaining at 1460 h ([4]; Month 2): 99.6%; remaining at 2190 h ([4]; Month 3): 99.6%; remaining at 4380 h ([4]; Month 6): 99.5%
6 | 1 (≈ 2.16 mM) | 386 mg/mL (≈ 834 mM) | O=P(O)(O)OCCCCN1CCC(=C2c3ccc(Cl)cc3CCc3cccnc32)CC1 [Compound IV-5] | 362.49 ± 50.00 | 65.70±20.11 | 31.60±20.10 | 1.19 ± 0.23 | 1.19 ± 0.27 | solubility Methanol [1]: 22 mg/mL (≈ 47.5 mM); Content ([4]; Month 0): 99.5%; Description ([4]; Month 0): White powder; Related substances ([4]; Month 0): 0.03%; Description ([4]; Month 1): White powder; Related substances ([4]; Month 1): 0.06%; Content ([4]; Month 1, 43800 min): 99.5%; Description ([4]; Month 2): White powder; Related substances ([4]; Month 2): 0.10%; Content ([4]; Month 2, 87600 min): 99.4%; Description ([4]; Month 3): White powder; Related substances ([4]; Month 3): 0.13%; Content ([4]; Month 3, 131400 min): 99.4%; Description ([4]; Month 6): White powder; Related substances ([4]; Month 6): 0.28%; Content ([4]; Month 6, 262800 min): 99.2%
7 | 5 (≈ 10.5 mM) | 367 mg/mL (≈ 769 mM) | O=P(O)(O)OCCCCCN1CCC(=C2c3ccc(Cl)cc3CCc3cccnc32)CC1 [Compound IV-6] | 361.94 ± 53.19 | 65.80±19.03 | 34.10±18.93 | 1.18 ± 0.21 | 1.14 ± 0.25 | solubility Methanol [1]: 30 mg/mL (≈ 62.9 mM)
8 |  |  | O=P(O)(O)OCOCCCN1CCC(=C2c3ccc(Cl)cc3CCc3cccnc32)CC1 [Compound IV-9] | 361.82 ± 51.36 | 65.89±19.76 | 32.75±19.48 | 1.18 ± 0.29 | 1.17 ± 0.25 | Content ([4]; Month 0): 99.7%; Description ([4]; Month 0): White powder; Related substances ([4]; Month 0): 0.03%; Description ([4]; Month 1): White powder; Related substances ([4]; Month 1): 0.04%; Description ([4]; Month 2): White powder; Related substances ([4]; Month 2): 0.05%; Description ([4]; Month 3): White powder; Related substances ([4]; Month 3): 0.06%; Description ([4]; Month 6): White powder; Related substances ([4]; Month 6): 0.10%; remaining at 730 h ([4]; Month 1): 99.7%; remaining at 1460 h ([4]; Month 2): 99.7%; remaining at 2190 h ([4]; Month 3): 99.7%; remaining at 4380 h ([4]; Month 6): 99.6%
9 |  | Practically insoluble | OCCCCN1CCC(=C2c3ccc(Cl)cc3CCc3cccnc32)CC1 [Hydroxybutyl desloratadine, hydroxybutyl desloratadine, reference compound] | 279.71 ± 54.91 |  | 23.53±12.32 | 1.44 ± 0.44 | 1.30 ± 0.23 | Smooth muscle tone (g) After addition of histamine (histamine): 3.41 ± 0.92 g; Smooth muscle tone (g) Before administration (histamine): 1.73 ± 0.12 g
10 |  | Practically insoluble | OCCN1CCC(=C2c3ccc(Cl)cc3CCc3cccnc32)CC1 [Hydroxyethyl desloratadine, hydroxyethyl desloratadine, reference compound] | 284.11 ± 59.10 | 57.94±11.45 | 23.97±10.32 | 1.43 ± 0.41 | 1.30 ± 0.30 | 
11 |  | Practically insoluble | OCCCCCCN1CCC(=C2c3ccc(Cl)cc3CCc3cccnc32)CC1 [Hydroxyhexyl desloratadine, hydroxyhexyl desloratadine, reference compound] | 283.84 ± 58.88 |  | 26.31±13.96 | 1.43 ± 0.43 | 1.26 ± 0.23 | 
12 |  | Practically insoluble | OCCCCCN1CCC(=C2c3ccc(Cl)cc3CCc3cccnc32)CC1 [Hydroxypentyl desloratadine, hydroxypentyl desloratadine, reference compound] | 280.29 ± 58.19 |  | 28.73±11.32 | 1.41 ± 0.42 | 1.24 ± 0.22 | 
13 |  | Practically insoluble | OCCCN1CCC(=C2c3ccc(Cl)cc3CCc3cccnc32)CC1 [Hydroxypropyl desloratadine, hydroxypropyl desloratadine, reference compound] | 288.33 ± 58.12 |  | 24.70±13.43 | 1.41 ± 0.42 | 1.28 ± 0.25 | 

Row | Structure (SMILES) | solubility Isopropanol [1] [mg/mL] | solubility Water [1] | Post-administration latency period (histamine-induced asthma) [s] | Antispasmodic percentage (%) (histamine) | Antispasmodic percentage (%) [2] [%] | Smooth muscle tone (g) After administration [3] [g] | Smooth muscle tone (g) After administration [2] [g] | further results
14 | Clc1ccc2c(c1)CCc1cccnc1C2=C1CCNCC1 [Desloratadine, desloratadine, reference compound] |  | Practically insoluble |  |  |  |  |  | 
